Key:
[1] = test system: MBNL1 exon 5 inclusion in DM1 myotubes; test: Myotube splicing rescue assay (MBNL1 exon 5 inclusion); format: cell-based, human; details: 48-hour incubation
r(CUG)12-MBNL1 complex = test: Inhibition of the r(CUG)12-MBNL1 complex measured by TR-FRET; format: biochemical; details: 80 nM RNA, 60 nM MBNL1-His6

Row | SMILES | IC50 (r(CUG)12-MBNL1 complex; Table L) [µM] | IC50 (r(CUG)12-MBNL1 complex; Table M) [µM] | MBNL1 % splicing rescue at 1 μM [1] [%] | MBNL1 % splicing rescue at 10 μM [1] [%] | MBNL1 % splicing rescue at 5 μM ([1]; 5 μM) [%]
1 | O=C(NCCN1CCCCC1)c1ccc2nc(-c3ccc(-c4nc5ccc(C(=O)NCCN6CCCCC6)cc5[nH]4)cc3)[nH]c2c1 [Compound 41, 2,2′-(1,4-phenylene)bis(N-(2-(piperidin-1-yl)ethyl)-1H-benzo[d]imidazole-6-carboxamide)] | 6.6 |  | 43.7 | 59.1 | 
2 | COc1cc(-c2nc3ccc(C(=O)OCCN(C)C)cc3[nH]2)c(OC)cc1-c1nc2ccc(C(=O)OCCN(C)C)cc2[nH]1 [Compound 269, bis(2-(dimethylamino)ethyl) 2,2′-(2,5-dimethoxy-1,4-phenylene)bis(1H-benzo[d]imidazole-6-carboxylate)] |  | 3.11 |  | 55.6 | 
3 | CN(C)CCCOc1ccc2nc(-c3ccc(-c4nc5ccc(C(=O)OCCN(C)C)cc5[nH]4)cc3)[nH]c2c1 [Compound 266] |  | 10.7 |  | −13.1 | 
4 | CN(C)CCCOc1ccc2nc(-c3ccc(-c4nc5ccc(C(=O)NCCNC(=N)N)cc5[nH]4)cc3)[nH]c2c1 [Compound 264, 2-(4-(6-(3-(dimethylamino)propoxy)-1H-benzo[d]imidazol-2-yl)phenyl)-N-(2-guanidinoethyl)-1H-benzo[d]imidazole-6-carboxamide] |  | 6.03 |  | −23.5 | 
5 | CN(C)CCNS(=O)(=O)c1ccc2nc(-c3ccc(-c4nc5ccc(S(=O)(=O)NCCN(C)C)cc5[nH]4)cc3)[nH]c2c1 [Compound 275, 2,2′-(1,4-phenylene)bis(N-(2-(dimethylamino)ethyl)-1H-benzo[d]imidazole-6-sulfonamide)] |  | 24.3 |  | −6.5 | 
6 | COc1cc(-c2nc3ccc(C(=O)NCCCN(C)C)cc3[nH]2)c(OC)cc1-c1nc2cc(OCCCN(C)C)ccc2[nH]1 [Compound 299] |  | 10.3 |  | −34.9 | 
7 | CN(C)CCc1cn(-c2ccc3nc(-c4ccc(-c5nc6ccc(-n7cc(CCN(C)C)nn7)cc6[nH]5)cc4)[nH]c3c2)nn1 [Compound 221] |  | 2.53 |  | −2.5 | 
8 | CN1CCN(CCNC(=O)c2ccc3nc(-c4ccc(-c5nc6ccc(C(=O)NCCN7CCCCC7)cc6[nH]5)cc4)[nH]c3c2)CC1 [Compound 44, N-(2-(4-methylpiperazin-1-yl)ethyl)-2-(4-(6-((2-(piperidin-1-yl)ethyl)carbamoyl)-1H-benzo[d]imidazol-2-yl)phenyl)-1H-benzo[d]imidazole-6-carboxamide] | 11.9 |  | 6.1 | 16.4 | 
9 | CN(C)CCNC(=O)c1ccc2nc(-c3ccc(-c4nc5ccc(NC6=NCCN6)cc5[nH]4)cc3)[nH]c2c1 [Compound 149] | 6.1 |  |  | −1.1 | 
10 | Nc1cc(-c2nc3ccc(C(=O)NCCN4CCCCC4)cc3[nH]2)ccc1-c1nc2ccc(C(=O)NCCN3CCCCC3)cc2[nH]1 [Compound 176, 2,2′-(2-amino-1,4-phenylene)bis(N-(2-(piperidin-1-yl)ethyl)-1H-benzo[d]imidazole-6-carboxamide)] |  | 5.52 |  | −5.0 | 
11 | COc1cc(-c2nc3ccc(OCCCN(C)C)cc3[nH]2)ccc1-c1nc2ccc(OCCCN(C)C)cc2[nH]1 [Compound 293] |  | 18.2 |  | 71.0 | 
12 | N=C(N)NCCNC(=O)c1ccc2nc(-c3ccc(-c4nc5ccc(C(=O)NCCNC(=N)N)cc5[nH]4)cc3)[nH]c2c1 [Compound 38] | 2.6 |  |  | 0.0 | 
13 | Nc1ccc(-c2nc3cc(-c4ccc5[nH]c(-c6ccc(NC7=NCCN7C7=NCCN7)cc6)nc5c4)ccc3[nH]2)cc1 [Compound 160] | 19.2 |  |  | 63.0 | 
14 | c1cc(-c2nc3ccc(N4CCNCC4)cc3[nH]2)ccc1-c1nc2ccc(N3CCNCC3)cc2[nH]1 [Compound 150] | 29.6 |  |  | 41.0 | 
15 | CCN(CC)CCNC(=O)c1ccc2nc(-c3ccc(-c4nc5ccc(C(=O)NCCN(CC)CC)cc5[nH]4)cc3)[nH]c2c1 [Compound 33] | 8.1 |  |  | 16.4 | 
16 | CN(C)CCCOc1ccc2nc(-c3cc(O)c(-c4nc5ccc(OCCCN(C)C)cc5[nH]4)cc3O)[nH]c2c1 [Compound 278] |  | 38.1 | 79.7 | 48.2 | 
17 | CN(C)CCCOc1ccc2nc(-c3ccc(-c4nc5ccc(OCCCN(C)C)cc5[nH]4)c(Cl)c3)[nH]c2c1 [Compound 257, 3,3′-((2,2′-(2-chloro-1,4-phenylene)bis(1H-benzo[d]imidazole-6,2-diyl))bis(oxy))bis(N,N-dimethylpropan-1-amine)] |  | 24.6 |  | 92.1 | 
18 | COCCOc1cc(-c2nc3ccc(OCCCN(C)C)cc3[nH]2)ccc1-c1nc2ccc(OCCCN(C)C)cc2[nH]1 [Compound 258, 3,3′-((2,2′-(2-(2-methoxyethoxy)-1,4-phenylene)bis(1H-benzo[d]imidazole-6,2-diyl))bis(oxy))bis(N,N-dimethylpropan-1-amine)] |  | 31 |  | 10.0 | 
19 | CN(C)CCCOc1ccc2nc(-c3ccc(-c4nc5ccc(OCCCN)cc5[nH]4)cc3)[nH]c2c1 [Compound 205, 3-((2-(4-(6-(3-aminopropoxy)-1H-benzo[d]imidazol-2-yl)phenyl)-1H-benzo[d]imidazol-6-yl)oxy)-N,N-dimethylpropan-1-amine] |  | 27.3 |  | −48.4 | 
20 | CN(C)CCCCCCOc1ccc2nc(-c3ccc(-c4nc5ccc(OCCCCCCN(C)C)cc5[nH]4)cc3)[nH]c2c1 [Compound 212] |  | 5.3 |  | 77.0 | 
21 | COc1cc(-c2nc3ccc(C(=O)NCCN(C)C)cc3[nH]2)c(OC)cc1-c1nc2cc(OCCCN(C)C)ccc2[nH]1 [Compound 298] |  | 23.5 |  | −41.8 | 
22 | CN(C)CCCOc1ccc2nc(-c3ccc(-c4nc5ccc(OCCCN(C)C)cc5[nH]4)c(OCCCl)c3)[nH]c2c1 [Compound 267, 3,3′-(((2-(2-chloroethoxy)-1,4-phenylene)bis(1H-benzo[d]imidazole-2,6-diyl))bis(oxy))bis(N,N-dimethylpropan-1-amine)] |  | 10.9 |  | 1.8 | 
23 | CN(C)CCCOc1ccc2nc(-c3ccc(-c4nc5ccc(OCCCN(C)C)cc5[nH]4)c(OCCO)c3)[nH]c2c1 [Compound 259, 2-(2,5-bis(6-(3-(dimethylamino)propoxy)-1H-benzo[d]imidazol-2-yl)phenoxy)ethanol] |  | 7.2 |  | −12.7 | 
24 | c1cc2nc(-c3ccc(-c4nc5ccc(NC6=NCCN6C6=NCCN6)cc5[nH]4)cc3)[nH]c2cc1NC1=NCCN1C1=NCCN1 [Compound 77] | 10.8 |  |  | 4.2 | 
25 | CN(C)CCNC(=O)c1ccc2nc(-c3ccc(-c4nc5ccc(NC6=NCCN6C6=NCCN6)cc5[nH]4)cc3)[nH]c2c1 [Compound 148] | 7.4 |  |  | 1.7 | 

Now from value to compound, other results behind:

Row | IC50 (r(CUG)12-MBNL1 complex; Table L) [µM] | IC50 (r(CUG)12-MBNL1 complex; Table M) [µM] | SMILES | MBNL1 % splicing rescue at 1 μM [1] [%] | MBNL1 % splicing rescue at 10 μM [1] [%] | MBNL1 % splicing rescue at 5 μM ([1]; 5 μM) [%]
26 |  | 11.1 | COc1cc(-c2nc3ccc(OCCCN(C)C)cc3[nH]2)c(OC)cc1-c1nc2ccc(OCCCN(C)C)cc2[nH]1 [Compound 290] |  | 97.2 | 
27 |  | 14.2 | CN1CCN(c2ccc(-c3nc4cc(-c5ccc6[nH]c(-c7ccc(N8CCN(C)CC8)cc7)nc6c5)ccc4[nH]3)cc2)CC1 [Compound 334] | 73.1 |  | 
28 |  | 8.03 | CN1CCC(COc2ccc(-c3nc4cc(-c5ccc6[nH]c(-c7ccc(OCC8CCN(C)CC8)cc7)nc6c5)ccc4[nH]3)cc2)CC1 [Compound 336] | 59.0 | 77.0 | 
29 |  | 15.1 | CN1CCC[C@H]1COc1ccc(-c2nc3cc(-c4ccc5[nH]c(-c6ccc(O)cc6)nc5c4)ccc3[nH]2)cc1 [Compound 357] | 1.1 | 66.0 | 
30 |  | 13.3 | CCN(CC)CCOc1ccc(-c2nc3cc(-c4ccc5[nH]c(-c6ccc(OCCN(CC)CC)cc6)nc5c4)ccc3[nH]2)cc1 [Compound 353] | 7.5 |  | 
31 |  | 12.8 | CN(C)CCCCCOc1ccc(-c2nc3cc(-c4ccc5[nH]c(-c6ccc(OCCCCCN(C)C)cc6)nc5c4)ccc3[nH]2)cc1 [Compound 371] | 79.7 | 72.4 | 
32 |  | 1.8 | COc1cc(-c2nc3ccc(OCCCN(C)C)cc3[nH]2)c(O)cc1-c1nc2cc(OCCCN(C)C)ccc2[nH]1 [Compound 308] |  | −24.4 | 
33 |  | 5.96 | CN1CC[C@@H](NC(=O)c2ccc(-c3nc4cc(-c5ccc6[nH]c(-c7ccc(C(=O)N[C@@H]8CCN(C)C8)cc7)nc6c5)ccc4[nH]3)cc2)C1 [Compound 339] | −3.2 | 1.8 | 
34 |  | 16.7 | C#CCCCCN(C)CCNC(=O)CCCOc1ccc2[nH]c(-c3ccc(-c4nc5cc(OCCCN(C)C)ccc5[nH]4)cc3)nc2c1 [Compound 320] |  | 88.2 | 
35 |  | 7.48 | CN(C)CCCNC(=O)c1ccc(-c2nc3cc(-c4ccc5[nH]c(-c6ccc(C(=O)NCCCN(C)C)cc6)nc5c4)ccc3[nH]2)cc1 [Compound 393] |  | 17.1 | 
36 |  | 9.7 | N=C(N)CCCOc1ccc2nc(-c3ccc(-c4nc5ccc(OCCCC(=N)N)cc5[nH]4)cc3)[nH]c2c1 [Compound 297] |  | −4.4 | 
37 |  | 1.3 | C[C@@H](NC(=O)CNCCCn1cc(CCCCN(C)CCNC(=O)c2ccc(-c3nc4cc(-c5ccc6[nH]c(-c7ccc(C(=O)NCCN(C)C)cc7)nc6c5)ccc4[nH]3)cc2)nn1)C(=O)N[C@H](C)C(=O)N[C@H](C)C(=O)N[C@H](C)C(=O)N(CCCn1cc(CCCCN(C)CCNC(=O)c2ccc(-c3nc4cc(-c5ccc6[nH]c(-c7ccc(C(=O)NCCN(C)C)cc7)nc6c5)ccc4[nH]3)cc2)nn1)CC(N)=O [Compound 460] |  |  | −21.0
